Measurements reported in US7645802B2 (Biovail Laboratories International SRL., priority 2005, dated 2010).
Entries after “also recorded” stand apart in the source; their conditions may differ. Counter-ions that a name gives are not always drawn.

How the values were obtained:
CD-1 mice [1] = assay: clonic convulsions in CD-1 mice after intraperitoneal dosing (range finding and main study)
Method: Two studies were performed to investigate the relative proconvulsant properties of the two bupropion salts. In the first instance a range finding study was performed to establish the appropriate dose range for the main study. In each study the mice were divided into two dose groups and injected intraperitoneally with either bupropion HCl or bupropion HBr.
A clonic convulsion was defined as a stiffening of the animal followed by jerking movements. The convulsions were classified as mild, moderate and severe according to the following descriptions.
Mild: Head and tail slightly extended and little jerking
Moderate: Head and tail fully extended with some jerking
Severe: Head and tail fully extended with strong jerking
Post-treatment findings recorded included continuous observation for 120 minutes for evidence of clonic convulsions, and intermittent (fixed) observations for 24 hours for other signs, including tonic convulsions, movement, activity, paralysis, gait and evidence of recovery.

mice = assay: Proconvulsant properties of bupropion salts: clonic convulsions in mice; settings: for Mean Number of Convulsions/Mouse / Total Number of convulsions: N=13
Method: Number of convulsions and the intensity of the convulsions were recorded.
Mild: Head and tail slightly extended and little jerking; Moderate: Head and tail fully extended with some jerking; Severe: Head and tail fully extended with strong jerking. […] Step 2: To further investigate the patterns of convulsion occurrence using loglinear Poisson regression models. The number of convulsions was analyzed using the loglinear Poisson regression models with formulation, dose, and severity as predictors.

CD-1 mice [2] = assay: cortical EEG and behaviour in mice at convulsive and non-convulsive doses; settings: 150 mg/kg i.p.; for seizure-like behavioural activity over time, second study pair: time after injection
Method: Test system: 30 healthy female mice, of strain CD-1, having a bodyweight of 25-29 g, were acclimatized for a minimum period of 4 days and used for this study. Each animal, after allocation to groups, was identified by markings on the dorsal surface of the tail. Environmental conditions included a temperature of 22±3° C., and artificial lighting of 12 hours light/dark cycle. Routine activities such as cleaning, feeding and watering were performed according to the RCSl's current SOPS.
The diluent used was 0.9% sodium chloride solution. Storage temperature was at about 25° C.
Test Item Administration: The test item was administered intraperitoneally using a disposable syringe with a 1 ml syringe and 26 g needle. The route of administration was intraperitoneal.
Protocol: Habituated mice were anesthetized with isofolurane, placed in a stereotaxic frame and maintained normothermic (36-37° C.) by means of a feedback-controlled mouse-designed homeothermic blanket (Harvard Apparatus). Under isoflurane anaesthesia, a midline skill incision was made over the skull and the skull exposed. Three partial craniectomies were performed: one overlying each temporal lobe and a third across the region overlying frontal cortex. Mouse-sized cranial EEG (E363/20, electrode with mounting screw and socket, Plastics One Inc) were affixed at each point. The electrode assembly was affixed to the skull with dental cement and then anaesthesia discontinued and the animal placed in the recording chamber for 30-60 minutes after recovery. Electrodes were then connected to a multichannel 363 Connector Cable system with SL6C 6 channel swivel commutator and baseline EEG recordings commenced using a Grass model Comet Portable 40-channel Digital EEG & Review System with Twin digital EEG in tandem with continuous digital video. […] Mice were run in parallel so that a hydrochloride mouse was injected within minutes of a hydrobromide mouse and recordings made simultaneously. Video-EEG was recorded for a period of one (1) hour. Afterwards, mice were returned to cages and then euthanized at 24 h and brains harvested.
Analysis: The duration of type IV polyspike high frequency (>1 Hz) high amplitude (>2× baseline) was determined for each mouse over the 1 h recording period.

[3] = 100 mg/kg i.p., pooled data N = 13/dose group, hydrochloride
[4] = 150 mg/kg i.p., pooled data N = 13/dose group, hydrochloride
[5] = 150 mg/kg, Moderate, hydrochloride
[6] = 150 mg/kg, Severe, hydrochloride

CC(NC(C)(C)C)C(=O)c1cccc(Cl)c1 (centres unmarked) [Bupropion HCl, bupropion hydrochloride]
Mean Number of Convulsions/Mouse (CD-1 mice [1]; 75 mg/kg i.p. (as Bupropion HCl, HBr equimolar), range-finding study, N = 3/dose group): 0 | Mean Intensity of Convulsions/Mouse % of Total: Mild (CD-1 mice [1]; [3]): 0.0 % of Total | Mean Intensity of Convulsions/Mouse % of Total: Moderate (CD-1 mice [1]; [3]): 33.3 % of Total | Mean Intensity of Convulsions/Mouse % of Total: Severe (CD-1 mice [1]; [3]): 66.7 % of Total | Mean Number of Convulsions/Mouse (CD-1 mice [1]; [3]): 0.2 | numbers of mice that had convulsions in the dose group (CD-1 mice [1]; [3]): 2/13 | numbers of mice that had convulsions in the dose group (CD-1 mice [1]; 100 mg/kg i.p., range-finding study, N = 3/dose group): 2/3 | Mean Number of Convulsions/Mouse (CD-1 mice [1]; 100 mg/kg i.p., range-finding study, N = 3/dose group, hydrochloride): 1.0 | Mean Number of Convulsions/Mouse (CD-1 mice [1]; 100 mg/kg i.p., second (main) study, N = 10/dose group, hydrochloride): 0 | numbers of mice that had convulsions in the dose group (CD-1 mice [1]; 150 mg/kg i.p., pooled data N = 13/dose group): 13/13 | Mean Intensity of Convulsions/Mouse % of Total: Mild (CD-1 mice [1]; [4]): 8.8 % of Total | Mean Intensity of Convulsions/Mouse % of Total: Moderate (CD-1 mice [1]; [4]): 12.2 % of Total | Mean Intensity of Convulsions/Mouse % of Total: Severe (CD-1 mice [1]; [4]): 79.0 % of Total | Mean Number of Convulsions/Mouse (CD-1 mice [1]; [4]): 71.0 | numbers of mice that had convulsions in the dose group (CD-1 mice [1]; 150 mg/kg i.p., range-finding study, N = 3/dose group): 3/3 | Mean Number of Convulsions/Mouse (CD-1 mice [1]; 150 mg/kg i.p., range-finding study, N = 3/dose group, hydrochloride): 32.0 | numbers of mice that had convulsions in the dose group (CD-1 mice [1]; 150 mg/kg i.p., second (main) study, N = 10/dose group): 10/10 | Mean Number of Convulsions/Mouse (CD-1 mice [1]; 150 mg/kg i.p., second (main) study, N = 10/dose group, hydrochloride): 82.7 | numbers of mice that had convulsions in the dose group (CD-1 mice [1]; […] i.p., pooled data N = 13/dose group, hydrochloride): 13/13 | numbers of mice that had convulsions in the dose group (CD-1 mice [1]; […] i.p., range-finding study, N = 3/dose group): 3/3 | numbers of mice that had convulsions in the dose group (CD-1 mice [1]; […] i.p., second (main) study, N = 10/dose group, hydrochloride): 10/10 | threshold for tonic convulsions (CD-1 mice [1]; range finding study, i.p., hydrochloride): 100 mg/kg | Mean Number of Convulsions/Mouse, cumulative (mice; 100 mg/kg, All, hydrochloride): 0.23 | Mean Number of Convulsions/Mouse (mice; 100 mg/kg, Mild, hydrochloride): 0.0 | Total Number of convulsions (mice; 100 mg/kg, Mild, hydrochloride): 0 | Mean Number of Convulsions/Mouse (mice; 100 mg/kg, Moderate): 0.08 | Total Number of convulsions (mice; 100 mg/kg, Moderate): 1 | Mean Number of Convulsions/Mouse, cumulative (mice; 100 mg/kg, Severe + Moderate, hydrochloride): 0.23 | Mean Number of Convulsions/Mouse (mice; 100 mg/kg, Severe, 120 min observation, hydrochloride): 0.15 | Total Number of convulsions (mice; 100 mg/kg, Severe, hydrochloride): 2 | Mean Number of Convulsions/Mouse, cumulative (mice; 150 mg/kg, All, hydrochloride): 71.00 | Mean Number of Convulsions/Mouse (mice; 150 mg/kg, Mild, hydrochloride): 6.23 | Total Number of convulsions (mice; 150 mg/kg, Mild, hydrochloride): 81 | Mean Number of Convulsions/Mouse (mice; [5]): 8.69 | Total Number of convulsions (mice; [5]): 113 | Mean Number of Convulsions/Mouse, cumulative (mice; 150 mg/kg, Severe + Moderate, hydrochloride): 64.77 | Mean Number of Convulsions/Mouse (mice; [6]): 56.08 | Total Number of convulsions (mice; [6]): 729

CC(NC(C)(C)C)C(=O)c1cccc(Cl)c1.Cl (racemic) [bupropion hydrochloride, (±)-1-(3-chlorophenyl)-2-[(1,1-dimethylethyl)amino]-1-propanone hydrochloride]
seizure EEG (CD-1 mice [2]; n=4 per salt, cortical electrodes, 1 h, listed as HCl, hydrochloride): no seizure EEG; also recorded: two very brief EEG bursts; also recorded: brief burst of seizure | seizure-like behavioural activity over time, second study pair (CD-1 mice [2]): about 30 mins | severity of seizure activity in the initial behavioral study (CD-1 mice [1]; CD-1 mice): more severe | Mean Number of Convulsions/Mouse, cumulative (mice; 100 mg/kg, All): 0.23 | odds of number of convulsions vs the bupropion hydrobromide group (mice; loglinear Poisson regression, adjusted for dose and severity): 1.41

Br.CC(NC(C)(C)C)C(=O)c1cccc(Cl)c1 (centres unmarked) [bupropion hydrobromide]
duration of convulsive behavior, hydrobromide versus hydrochloride (CD-1 mice [2]; study pairs 1, 2 and 3): lasted longer than the hydrochloride-treated mouse | seizure-like behavioural activity over time, second study pair (CD-1 mice [2]): still observing rearing and falling, forepaw running and turning in the hydrobromide-treated mouse at 60 minutes | reduction in the number of convulsant mice versus HCl salt (CD-1 mice [1]; […] dose level, pooled data): 15.4% | Mean Number of Convulsions/Mouse, cumulative (mice; 100 mg/kg, All): 0.77
